Laboratory results published in ChEMBL document CHEMBL1152979, “Inhibition of the insulin-like growth factor-1 receptor (IGF1R) tyrosine kinase as a novel cancer therapy approach” (J Med Chem, 2009).
One block for each compound: values may come before it.

What was measured:
[1] = target: T1, Insulin-like growth factor 1 receptor (Homo sapiens, UniProt P08069); test: Inhibition of IGF1R in human MCF7 cells by Western blot analysis; format: cell-based
[2] = target: T1, Insulin-like growth factor 1 receptor; test: Inhibition of IGF1R in growth factor-stimulated NHDF
[3] = target: T1, Insulin-like growth factor 1 receptor; test: Inhibition for IGF1R-induced S6 ribosomal protein phosphorylation in growth factor-stimulated NHDF
[4] = Cytotoxicity against human RD1 cells; format: functional, cell-based
[5] = Cytotoxicity against human MDA PCa 2b cells; format: functional, cell-based
[6] = target: T1, Insulin-like growth factor 1 receptor; test: Inhibition of GST-tagged human IGF1R expressed in baculovirus-infected Sf21 cells by scintillation proximity assay
[7] = target: T1, Insulin-like growth factor 1 receptor; test: Inhibition of IGF1R in IGF1-stimulated human MCF7 cells by Western blot analysis; format: cell-based
[8] = target: T1, Insulin-like growth factor 1 receptor; test: Inhibition of IGF1R autophosphorylation in human MCF7 cells by Western blot analysis; format: cell-based
[9] = target: T1, Insulin-like growth factor 1 receptor; test: Displacement of fluorescent ATP competitive ligand from IGF1R
[10] = target: T1, Insulin-like growth factor 1 receptor
Description: Inhibition of IGF1R by cell based assay

Insulin receptor [11] = target: T2, Insulin receptor (Homo sapiens, UniProt P06213); test: Inhibition of IRK
[12] = Selectivity for HER2 over EGFR
[13] = target: Epidermal growth factor receptor (Homo sapiens, UniProt P00533); test: Inhibition of HER1
Bcr/Abl fusion protein = Bcr/Abl fusion protein (Homo sapiens, UniProt P00519); test: Inhibition of BCR-ABL p210; format: protein assay
[14] = target: Mast/stem cell growth factor receptor Kit (Homo sapiens, UniProt P10721)
[15] = target: T1, Insulin-like growth factor 1 receptor; remark: listed apart in the source
[16] = Inhibition of PDGFR
[17] = target: T1, Insulin-like growth factor 1 receptor; remark: listed apart in the source
Description: Inhibition of IGF1R by cell based assay

Insulin receptor [18] = target: T2, Insulin receptor
Description: Inhibition of insulin receptor by cell based assay

[19] = target: Vascular endothelial growth factor receptor 2 (Homo sapiens, UniProt P35968); test: Inhibition of VEGFR2
[20] = target: Receptor tyrosine-protein kinase erbB-2 (Homo sapiens, UniProt P04626); test: Inhibition of HER2
[21] = Selectivity for insulin receptor over IGF1R
[22] = Selectivity for EGFR over HER2
[23] = target: Tyrosine-protein kinase Lck (Homo sapiens, UniProt P06239)
MCF7 = test: Cytotoxicity against human MCF7 cells; format: functional, cell-based
COLO 205 = test: Cytotoxicity against human COLO205 cells; format: functional, cell-based
Focal adhesion kinase 1 = Focal adhesion kinase 1 (Homo sapiens, UniProt Q05397)

T1 sequence (P08069 31-736 limits assumed): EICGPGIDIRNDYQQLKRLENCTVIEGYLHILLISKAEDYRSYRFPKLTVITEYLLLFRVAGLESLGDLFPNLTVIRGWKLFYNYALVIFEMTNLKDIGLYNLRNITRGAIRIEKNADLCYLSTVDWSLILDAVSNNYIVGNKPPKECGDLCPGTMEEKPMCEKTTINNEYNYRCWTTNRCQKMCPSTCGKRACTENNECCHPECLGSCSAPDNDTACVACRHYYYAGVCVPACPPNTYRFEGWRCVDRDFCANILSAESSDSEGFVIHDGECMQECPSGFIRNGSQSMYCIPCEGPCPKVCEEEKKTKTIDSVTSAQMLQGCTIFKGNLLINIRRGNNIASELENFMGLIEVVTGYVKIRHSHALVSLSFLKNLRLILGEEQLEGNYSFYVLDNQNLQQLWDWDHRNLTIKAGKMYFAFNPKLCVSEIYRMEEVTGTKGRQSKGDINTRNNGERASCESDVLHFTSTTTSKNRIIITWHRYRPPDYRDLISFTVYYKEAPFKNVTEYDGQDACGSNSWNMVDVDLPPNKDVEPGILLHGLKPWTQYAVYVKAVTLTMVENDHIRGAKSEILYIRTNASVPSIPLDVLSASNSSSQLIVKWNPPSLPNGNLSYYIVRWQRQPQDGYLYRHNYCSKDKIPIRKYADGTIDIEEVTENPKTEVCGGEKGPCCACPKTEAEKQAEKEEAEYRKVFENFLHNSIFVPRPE
T1 sequence (P08069 741-1367 limits assumed): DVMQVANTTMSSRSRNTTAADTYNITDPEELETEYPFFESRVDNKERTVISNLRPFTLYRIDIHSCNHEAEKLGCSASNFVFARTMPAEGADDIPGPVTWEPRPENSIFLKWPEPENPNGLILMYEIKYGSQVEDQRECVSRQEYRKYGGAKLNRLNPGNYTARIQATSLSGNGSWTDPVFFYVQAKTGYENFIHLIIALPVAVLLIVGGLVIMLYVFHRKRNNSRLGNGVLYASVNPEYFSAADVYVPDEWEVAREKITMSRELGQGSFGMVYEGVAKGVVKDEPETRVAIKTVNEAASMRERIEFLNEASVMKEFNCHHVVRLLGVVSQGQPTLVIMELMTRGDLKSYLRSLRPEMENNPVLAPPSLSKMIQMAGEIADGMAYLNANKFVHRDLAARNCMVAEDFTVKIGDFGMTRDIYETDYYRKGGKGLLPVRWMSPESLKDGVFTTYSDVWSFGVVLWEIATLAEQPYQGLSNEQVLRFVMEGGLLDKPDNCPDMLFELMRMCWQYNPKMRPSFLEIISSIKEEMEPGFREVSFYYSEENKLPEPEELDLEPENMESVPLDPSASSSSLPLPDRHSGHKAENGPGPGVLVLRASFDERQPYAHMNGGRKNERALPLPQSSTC
T2 sequence (P06213 28-758 limits assumed): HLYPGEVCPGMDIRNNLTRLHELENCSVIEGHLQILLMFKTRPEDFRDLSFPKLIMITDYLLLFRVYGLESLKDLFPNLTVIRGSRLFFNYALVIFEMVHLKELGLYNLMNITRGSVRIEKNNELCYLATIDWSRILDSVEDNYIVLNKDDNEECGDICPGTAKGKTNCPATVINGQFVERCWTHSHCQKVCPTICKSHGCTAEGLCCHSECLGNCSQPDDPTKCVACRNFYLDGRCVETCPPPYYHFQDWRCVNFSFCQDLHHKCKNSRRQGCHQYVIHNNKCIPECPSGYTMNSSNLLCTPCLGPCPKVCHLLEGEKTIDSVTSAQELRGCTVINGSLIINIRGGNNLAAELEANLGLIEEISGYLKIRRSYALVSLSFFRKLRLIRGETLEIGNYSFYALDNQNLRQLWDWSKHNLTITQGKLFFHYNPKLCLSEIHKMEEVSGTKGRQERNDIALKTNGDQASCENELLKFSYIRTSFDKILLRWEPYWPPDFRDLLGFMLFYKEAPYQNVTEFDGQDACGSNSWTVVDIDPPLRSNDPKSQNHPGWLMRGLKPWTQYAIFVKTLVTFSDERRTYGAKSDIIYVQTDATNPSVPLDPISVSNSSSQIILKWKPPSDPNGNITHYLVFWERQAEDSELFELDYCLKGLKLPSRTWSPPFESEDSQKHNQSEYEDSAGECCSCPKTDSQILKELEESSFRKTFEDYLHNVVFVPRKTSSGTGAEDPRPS
T2 sequence (P06213 763-1382 limits assumed): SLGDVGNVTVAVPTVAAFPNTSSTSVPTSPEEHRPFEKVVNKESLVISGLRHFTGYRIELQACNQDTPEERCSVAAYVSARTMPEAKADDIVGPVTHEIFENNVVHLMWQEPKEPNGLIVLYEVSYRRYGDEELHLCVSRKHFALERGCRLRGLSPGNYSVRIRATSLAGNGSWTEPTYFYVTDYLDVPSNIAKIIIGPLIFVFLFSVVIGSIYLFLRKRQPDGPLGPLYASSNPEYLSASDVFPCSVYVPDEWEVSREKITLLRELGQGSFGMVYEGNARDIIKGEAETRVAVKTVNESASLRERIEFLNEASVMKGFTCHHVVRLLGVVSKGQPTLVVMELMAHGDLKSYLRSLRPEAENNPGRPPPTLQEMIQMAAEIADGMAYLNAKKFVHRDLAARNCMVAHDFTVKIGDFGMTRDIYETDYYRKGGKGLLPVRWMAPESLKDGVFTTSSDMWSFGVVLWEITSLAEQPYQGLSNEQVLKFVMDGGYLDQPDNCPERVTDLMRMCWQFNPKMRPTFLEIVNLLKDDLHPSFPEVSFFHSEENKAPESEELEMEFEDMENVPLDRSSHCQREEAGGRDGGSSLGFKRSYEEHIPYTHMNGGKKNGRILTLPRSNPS
Chain of Bcr/Abl fusion protein (P00519 whole entry, the tested form may be a part): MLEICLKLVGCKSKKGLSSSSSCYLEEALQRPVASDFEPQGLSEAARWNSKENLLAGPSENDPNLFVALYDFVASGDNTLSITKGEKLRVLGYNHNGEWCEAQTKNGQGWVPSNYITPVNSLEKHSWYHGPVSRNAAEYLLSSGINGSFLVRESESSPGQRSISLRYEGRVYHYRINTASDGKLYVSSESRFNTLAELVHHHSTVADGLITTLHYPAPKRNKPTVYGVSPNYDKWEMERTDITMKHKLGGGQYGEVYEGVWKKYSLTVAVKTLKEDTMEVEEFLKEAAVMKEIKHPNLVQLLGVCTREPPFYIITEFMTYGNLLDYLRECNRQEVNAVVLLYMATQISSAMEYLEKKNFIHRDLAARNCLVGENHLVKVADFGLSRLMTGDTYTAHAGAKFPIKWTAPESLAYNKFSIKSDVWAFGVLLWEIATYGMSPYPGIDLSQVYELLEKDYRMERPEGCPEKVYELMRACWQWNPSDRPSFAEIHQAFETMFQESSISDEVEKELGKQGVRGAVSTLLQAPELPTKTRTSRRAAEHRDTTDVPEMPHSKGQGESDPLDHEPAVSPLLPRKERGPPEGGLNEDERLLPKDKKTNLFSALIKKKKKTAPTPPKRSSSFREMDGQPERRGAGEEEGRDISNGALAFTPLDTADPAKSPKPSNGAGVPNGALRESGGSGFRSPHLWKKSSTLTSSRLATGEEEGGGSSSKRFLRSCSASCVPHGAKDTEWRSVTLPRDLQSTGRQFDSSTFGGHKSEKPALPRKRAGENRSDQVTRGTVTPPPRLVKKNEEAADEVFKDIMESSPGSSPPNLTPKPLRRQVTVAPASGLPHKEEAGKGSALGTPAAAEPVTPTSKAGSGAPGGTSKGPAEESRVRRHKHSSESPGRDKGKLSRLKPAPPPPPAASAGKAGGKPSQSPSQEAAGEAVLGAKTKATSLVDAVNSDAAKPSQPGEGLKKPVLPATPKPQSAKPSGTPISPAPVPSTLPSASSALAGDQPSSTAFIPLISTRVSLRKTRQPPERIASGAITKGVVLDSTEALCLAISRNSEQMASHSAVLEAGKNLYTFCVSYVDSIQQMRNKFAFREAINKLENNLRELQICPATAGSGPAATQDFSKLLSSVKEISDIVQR
Chain of Bcr/Abl fusion protein (P11274 whole entry, further chain, the tested form may be a part): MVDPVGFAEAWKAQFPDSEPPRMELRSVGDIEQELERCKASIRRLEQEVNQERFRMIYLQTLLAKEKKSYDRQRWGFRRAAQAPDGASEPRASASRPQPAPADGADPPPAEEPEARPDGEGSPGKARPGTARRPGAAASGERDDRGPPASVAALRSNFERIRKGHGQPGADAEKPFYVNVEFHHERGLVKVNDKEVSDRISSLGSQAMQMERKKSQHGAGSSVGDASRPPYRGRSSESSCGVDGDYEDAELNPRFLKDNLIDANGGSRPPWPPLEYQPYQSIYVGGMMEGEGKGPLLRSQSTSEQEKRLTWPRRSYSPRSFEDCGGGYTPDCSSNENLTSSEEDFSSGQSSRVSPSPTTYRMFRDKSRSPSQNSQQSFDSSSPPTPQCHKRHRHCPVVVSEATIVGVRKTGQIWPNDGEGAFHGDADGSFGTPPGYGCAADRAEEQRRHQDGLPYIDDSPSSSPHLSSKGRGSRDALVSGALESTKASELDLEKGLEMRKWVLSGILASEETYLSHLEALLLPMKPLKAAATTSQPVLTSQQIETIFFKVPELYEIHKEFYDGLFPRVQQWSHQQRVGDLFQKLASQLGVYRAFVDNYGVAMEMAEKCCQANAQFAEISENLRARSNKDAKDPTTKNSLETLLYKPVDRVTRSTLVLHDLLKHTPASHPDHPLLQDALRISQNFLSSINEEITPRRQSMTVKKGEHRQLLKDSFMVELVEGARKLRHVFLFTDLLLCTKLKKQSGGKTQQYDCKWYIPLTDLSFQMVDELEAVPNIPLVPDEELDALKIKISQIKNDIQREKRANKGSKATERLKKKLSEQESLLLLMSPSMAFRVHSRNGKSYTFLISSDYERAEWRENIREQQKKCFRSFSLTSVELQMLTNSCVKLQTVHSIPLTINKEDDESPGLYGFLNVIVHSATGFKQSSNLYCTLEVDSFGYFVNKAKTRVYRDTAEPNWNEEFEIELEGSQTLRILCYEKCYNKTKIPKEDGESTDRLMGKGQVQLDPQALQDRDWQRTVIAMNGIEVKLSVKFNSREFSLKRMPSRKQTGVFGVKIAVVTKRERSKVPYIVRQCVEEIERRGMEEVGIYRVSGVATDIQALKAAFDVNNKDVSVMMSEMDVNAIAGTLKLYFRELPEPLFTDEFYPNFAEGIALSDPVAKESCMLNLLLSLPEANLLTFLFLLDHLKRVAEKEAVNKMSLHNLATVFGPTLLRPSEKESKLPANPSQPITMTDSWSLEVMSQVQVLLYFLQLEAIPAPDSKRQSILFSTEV

Structure (SMILES): CN1CCN(c2ccc(C(=O)Nc3n[nH]c4c3CN(S(=O)(=O)c3cc(F)cc(F)c3)CC4)c(NC(=O)c3ccc[nH]3)c2)CC1
IC50 [1]: 80 nM

Structure (SMILES): Cc1cc(N2CCOCC2)cc2[nH]c(-c3c(NC[C@@H](O)c4cccc(Cl)c4)cc[nH]c3=O)nc12
IC50 [4]: 202 nM
IC50 [5]: 194 nM

Structure (SMILES): CN1CCN(c2ccc(C(=O)Nc3n[nH]c4c3CN(S(=O)(=O)c3cc(F)cc(F)c3)C4(C)C)cc2NC(=O)c2cc[nH]c2)CC1
IC50 [6]: 90 nM
IC50 [7]: 300 nM

Structure (SMILES): CCOC(=O)c1[nH]c(C=O)c(C(=O)OCC)c1C
Activity [9]: 2.7 µM
Activity [10]: 15 µM
Activity (Insulin receptor [11]): 12 µM

Structure (SMILES): CC(C)(C)c1cc(/C=C(\C#N)C(N)=S)cc(C(C)(C)C)c1O
Selectivity ratio [12]: 1000

Structure (SMILES): CCOC(=O)c1c(C=O)[nH]c(C(=O)OC(C)(C)C)c1CC
Activity [9]: 0.49 µM
Activity [10]: 5.3 µM
Activity (Insulin receptor [11]): 2 µM

Structure (SMILES): Nc1nccn2cnc(-c3ccc4ccc(-c5ccccc5)nc4c3C3CC(N4CC4)C3)c12 (configuration not stated)
Selectivity ratio [21]: 5
IC50 [15]: 20 nM

Structure (SMILES): N#C/C(=C\c1ccc(O)c(O)c1)C(=O)c1ccc(O)c(O)c1
IC50 [15]: 61 nM

Structure (SMILES): Cc1cc(N2CCN(CCC#N)CC2)cc2nc(-c3c(NC[C@@H](O)c4ccccc4Cl)cc[nH]c3=O)[nH]c12
IC50 [4]: 146 nM
IC50 [23]: > 1500 nM
IC50 [5]: 188 nM
IC50 (MCF7): 234 nM
IC50 (COLO 205): 120 nM
IC50 (Focal adhesion kinase 1): 94 nM

More lines, now with the values ahead:

IC50 [2]: 340 nM
IC50 [3]: 3050 nM
Structure (SMILES): CN1CCN(c2ccc(C(=O)Nc3n[nH]c4c3CN(S(=O)(=O)c3cc(F)cc(F)c3)CC4)cc2)CC1

IC50 [8]: < 1000 nM
Structure (SMILES): COc1ccc(Cl)cc1NC(=O)Nc1cc(C)nc2ccccc12

IC50 [13]: > 10000 nM
IC50 (Bcr/Abl fusion protein): > 10000 nM
IC50 [14]: > 5000 nM
Structure (SMILES): Nc1ncnc2c1c(-c1cccc(OCc3ccccc3)c1)cn2[C@H]1C[C@@H](CN2CCC2)C1 [AEW-541]

IC50 [15]: 830 nM
Structure (SMILES): Cc1cc(N2CCOCC2)cc2[nH]c(-c3c(NC[C@H](O)c4ccccc4Cl)cc[nH]c3=O)nc12

IC50 [16]: > 10000 nM
IC50 [17]: 170 nM
IC50 (Insulin receptor [18]): 2800 nM
IC50 [19]: > 10000 nM
IC50 (Bcr/Abl fusion protein): > 10000 nM
IC50 [14]: > 5000 nM
IC50 [20]: > 10000 nM
Structure (SMILES): Nc1ncnc2c1c(-c1cccc(OCc3ccccc3)c1)cn2[C@H]1C[C@H](N2CCCC2)C1

IC50 [15]: 14000 nM
Structure (SMILES): O=C(O[C@@H]1Cc2ccccc2O[C@@H]1c1cc(O)c(O)c(O)c1)c1cc(O)c(O)c(O)c1

Selectivity ratio [22]: 100
Structure (SMILES): N#C/C(=C\c1ccc(O)c(O)c1)C(=O)NCc1ccccc1
